Measured values from patent US4742057A, “Antiallergic thiazole compounds” (Fujisawa Pharmaceutical Co., Ltd., priority 1985, dated 1988).

Test system: anaphylactic asthma in guinea pigs
Assay: Antagonistic action on anaphylactic asthma in guinea pigs (prophylactic effect, survival after antigen spraying)
Format: in vivo, guinea pigs (male Hartley-strain)
Details: Cavia porcellus; oral, 30 min before egg-white albumin aerosol; survival for not less than 2 hours; passively sensitized guinea pigs

Point of comparison: `CC(=O)Nc1nc(CN2CCC(c3c[nH]c4ccccc34)CC2)cs1` [Compound A, 2-Acetylamino-4-[4-(3-indolyl)piperidinomethyl]thiazole], ED50 0.95 mg/kg. Against it:
- CS(=O)(=O)Nc1nc(CCCN2CCC(c3c[nH]c4ccccc34)CC2)cs1 [Compound G, 4-[3-[4-(3-Indolyl)piperidino]propyl]-2-mesylaminothiazole] — 32-fold lower, 0.03 mg/kg
- CS(=O)(=O)Nc1nc(CCN2CCC(c3c[nH]c4ccccc34)CC2)cs1 [Compound C, 4-[2-[4-(3-Indolyl)piperidino]ethyl]2-mesylaminothiazole] — 48-fold lower, 0.02 mg/kg
- CS(=O)(=O)Nc1nc(CN2CCC(c3c[nH]c4ccccc34)CC2)cs1 [Compound B, 4-[4-(3-Indolyl)piperidinomethyl]-2-mesylaminothiazole] — 11-fold lower, 0.086 mg/kg
- Nc1nc(CCCN2CCC(c3c[nH]c4ccccc34)CC2)cs1 [Compound F, 4-[3-[4-(3-Indolyl)piperidino]propyl]-2-aminothiazole] — 3.2-fold lower, 0.3 mg/kg
- CCC(=O)Nc1nc(CN2CCC(c3c[nH]c4ccccc34)CC2)cs1 [Compound D, 4-[4-(3-Indolyl)piperidinomethyl]-2-propionylaminothiazole] — within 1.5-fold, 0.92 mg/kg
